Measurements from PubChem BioAssay AID330 (DTP/NCI, 2004).
Values joined by “and” are separate entries in the source; they are usually repeats but may differ in a detail not shown here. Equal entries are not always repeated. Toxic doses and inconclusive results are not listed. How the source made its calls: active means survival T/C of 150% or more; inactive means T/C below 125% in these data.

Tested on: P388 leukemia ip, CD2F1 mice, survival T/C
Assay: NCI In Vivo Anticancer Drug Screen. Data for tumor model P388 Leukemia (intraperitoneal) in CD2F1 (CDF1) mice
Conditions: endpoint: median survival time, higher = longer survival
Procedure, shortened: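 Mice carrying the transplanted tumor received test compound or vehicle. Survival was recorded in each group, and the value is the treated-group measurement divided by that of the vehicle-treated control group.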

[1] = dose: 60.0 mg/kg/injection, schedule: Q01DX005 (ip), vehicle: Klucel (hydroxypropylcellulose) (HPC)
[2] = dose: 120.0 mg/kg/injection, schedule: Q01DX005 (ip), vehicle: Klucel (hydroxypropylcellulose) (HPC)
[3] = dose: 240.0 mg/kg/injection, schedule: Q01DX005 (ip), vehicle: Klucel (hydroxypropylcellulose) (HPC)
[4] = dose: 50.0 mg/kg/injection, schedule: Q01DX009 (ip), vehicle: saline with Tween-80
[5] = dose: 100.0 mg/kg/injection, schedule: Q01DX009 (ip), vehicle: saline with Tween-80
[6] = dose: 200.0 mg/kg/injection, schedule: Q01DX009 (ip), vehicle: saline with Tween-80
[7] = dose: 25.0 mg/kg/injection, schedule: Q01DX009 (ip), vehicle: Klucel (hydroxypropylcellulose) (HPC)
[8] = dose: 50.0 mg/kg/injection, schedule: Q01DX009 (ip), vehicle: Klucel (hydroxypropylcellulose) (HPC)
[9] = dose: 100.0 mg/kg/injection, schedule: Q01DX009 (ip), vehicle: Klucel (hydroxypropylcellulose) (HPC)
[10] = dose: 50.0 mg/kg/injection, schedule: Q01DX005 (ip), vehicle: saline with Tween-80
[11] = dose: 100.0 mg/kg/injection, schedule: Q01DX005 (ip), vehicle: saline with Tween-80
[12] = dose: 50.0 mg/kg/injection, schedule: Q01DX009 (ip), vehicle: saline
[13] = dose: 200.0 mg/kg/injection, schedule: Q01DX005 (ip), vehicle: saline with Tween-80

Measured: T/C

CN(C)c1c2c(oc(=O)c1Cl)-c1ccccc1OCC2
inactive: [1] 101 % of control | [2] 103 % of control | [3] 107 % of control

O=c1c2ccccc2ncn1CC1(O)CC2NCCCC2O1 (stereo unspecified)
inactive: dose: 2.0 mg/kg/injection, schedule: Q01DX009 (ip), vehicle: distilled water + Tween-80 115 % of control | dose: 4.0 mg/kg/injection, schedule: Q01DX009 (ip), vehicle: distilled water + Tween-80 117 % of control | dose: 5.0 mg/kg/injection, schedule: Q01DX009 (ip), vehicle: Klucel (hydroxypropylcellulose) (HPC) 116 % of control | dose: 8.0 mg/kg/injection, schedule: Q01DX009 (ip), vehicle: distilled water + Tween-80 102 % of control | dose: 10.0 mg/kg/injection, schedule: Q01DX009 (ip), vehicle: Klucel (hydroxypropylcellulose) (HPC) 107 % of control | dose: 16.0 mg/kg/injection, schedule: Q01DX009 (ip), vehicle: distilled water + Tween-80 117 % of control | dose: 20.0 mg/kg/injection, schedule: Q01DX009 (ip), vehicle: Klucel (hydroxypropylcellulose) (HPC) 98 % of control

CC(=O)C1C(=O)OC(C)(C)C1C=C(Cl)Cl (stereo unspecified)
inactive: dose: 100.0 mg/kg/injection, schedule: Q04DX002 (ip), vehicle: saline with Tween-80 101 % of control | dose: 200.0 mg/kg/injection, schedule: Q04DX002 (ip), vehicle: saline with Tween-80 107 % of control | dose: 400.0 mg/kg/injection, schedule: Q04DX002 (ip), vehicle: saline with Tween-80 109 % of control

O=C(C(=O)C(F)(F)C(F)(F)C(F)(F)F)c1ccccc1
inactive: dose: 50.0 mg/kg/injection, schedule: Q01DX005 (ip), vehicle: saline + Tween-80 + alcohol 102 % of control | dose: 100.0 mg/kg/injection, schedule: Q01DX005 (ip), vehicle: saline + Tween-80 + alcohol 97 % of control

C1=CC(=C(C2CCC(Nc3ccccc3)CC2)C2CCC(Nc3ccccc3)CC2)C=CC1=Nc1ccccc1 (stereo unspecified)
inactive: [4] 100 % of control | [5] 109 % of control | [6] 109 % of control

COCn1ccnc1C(=O)c1ccccc1
inactive: [4] 100 % of control | [5] 106 % of control | [6] 101 % of control

CCCc1c(Cl)[nH]c(=O)n(C)c1=O
inactive: dose: 50.0 mg/kg/injection, schedule: Q01DX005 (ip), vehicle: Klucel (hydroxypropylcellulose) (HPC) 111 % of control | dose: 100.0 mg/kg/injection, schedule: Q01DX005 (ip), vehicle: Klucel (hydroxypropylcellulose) (HPC) 111 % of control | dose: 200.0 mg/kg/injection, schedule: Q01DX005 (ip), vehicle: Klucel (hydroxypropylcellulose) (HPC) 97 % of control

CC/C=C/c1cc2ccccc2c(=O)o1
inactive: dose: 12.5 mg/kg/injection, schedule: Q01DX009 (ip), vehicle: Klucel (hydroxypropylcellulose) (HPC) 106 % of control | [7] 114 % of control | [8] 100 % of control | [9] 110 % of control

O=C([CH-]C(=O)C(F)(F)F)c1ccccc1.O=C([CH-]C(=O)C(F)(F)F)c1ccccc1.O=C([CH-]C(=O)C(F)(F)F)c1ccccc1.O=C([CH-]C(=O)C(F)(F)F)c1ccccc1.[Eu+3].c1ccncc1
inactive: [8] 113 % of control | [9] 104 % of control

C=C(Cl)CN(CC)CCO
inactive: dose: 25.0 mg/kg/injection, schedule: Q01DX009 (ip), vehicle: saline sonified 100 % of control | dose: 50.0 mg/kg/injection, schedule: Q01DX009 (ip), vehicle: saline sonified 100 % of control | dose: 100.0 mg/kg/injection, schedule: Q01DX009 (ip), vehicle: saline sonified 100 % of control

O=[N+]([O-])c1ccc(/C=N\N=C\c2ccco2)cc1
inactive: [5] 90 % of control | [6] 100 % of control | dose: 400.0 mg/kg/injection, schedule: Q01DX009 (ip), vehicle: saline with Tween-80 90 % of control

C=CCNC(=S)Nc1ccc(NC(C)=O)c(OC)c1
inactive: [8] 102 % of control | [9] 102 % of control | dose: 200.0 mg/kg/injection, schedule: Q01DX009 (ip), vehicle: Klucel (hydroxypropylcellulose) (HPC) 86 % of control

Cc1ccc(C2=C(Cl)C(=O)NC2=O)s1
inactive: dose: 3.13 mg/kg/injection, schedule: Q01DX001 (ip), vehicle: saline 100 % of control | dose: 6.25 mg/kg/injection, schedule: Q01DX001 (ip), vehicle: saline 99 % of control | dose: 12.5 mg/kg/injection, schedule: Q01DX001 (ip), vehicle: saline 95 % of control

C[Si](C)(C)C#CC[Si](C)(C)C
inactive: dose: 60.0 mg/kg/injection, schedule: Q01DX005 (ip), vehicle: saline with Tween-80 97 % of control | dose: 120.0 mg/kg/injection, schedule: Q01DX005 (ip), vehicle: saline with Tween-80 100 % of control | dose: 240.0 mg/kg/injection, schedule: Q01DX005 (ip), vehicle: saline with Tween-80 106 % of control

COc1cc(C(=O)CO)cc(OC)c1OC(C)=O
inactive: dose: 100.0 mg/kg/injection, schedule: Q04DX003 (ip), vehicle: saline with Tween-80 104 % of control and 105 % of control | dose: 200.0 mg/kg/injection, schedule: Q04DX003 (ip), vehicle: saline with Tween-80 116 % of control

COC(=O)NN(C(=O)OC)C12CCCC1N(C(=O)OC)N(C(=O)OC)c1c2ccc2ccccc12 (stereo unspecified)
inactive: [1] 103 % of control | [2] 103 % of control | [3] 96 % of control

O=C(c1c(F)c(F)c(F)c(F)c1F)n1ccnc1
inactive: dose: 60.0 mg/kg/injection, schedule: Q01DX005 (ip), vehicle: saline 104 % of control | dose: 120.0 mg/kg/injection, schedule: Q01DX005 (ip), vehicle: saline 101 % of control | dose: 240.0 mg/kg/injection, schedule: Q01DX005 (ip), vehicle: saline 87 % of control

CCCC(CC)(C(=O)Nc1ccc2nc(C)cc(N)c2c1)C(=O)Nc1ccc2nc(C)cc(N)c2c1
inactive: [10] 91 % of control | [11] 93 % of control

CN(C)CC/C([O-])=N/[n+]1c2c(nc3ccccc31)-c1cccc3cccc-2c13
inactive: [7] 109 % of control | [8] 111 % of control | [9] 116 % of control

CCN(CC)Cc1cc(C(CC(=O)c2ccccc2)S(=O)(=O)c2ccc(C)cc2)ccc1O (stereo unspecified)
inactive: dose: 12.5 mg/kg/injection, schedule: Q01DX009 (ip), vehicle: saline with Tween-80 88 % of control | dose: 25.0 mg/kg/injection, schedule: Q01DX009 (ip), vehicle: saline with Tween-80 89 % of control | [12] 93 % of control

CSC1=NS(=O)(=O)c2ccccc21
inactive: [10] 96 % of control | [11] 96 % of control | [13] 103 % of control

N/C(=N\N=C\c1cc(Br)cc(Br)c1O)N/N=C/c1cc(Br)cc(Br)c1O
inactive: dose: 12.5 mg/kg/injection, schedule: Q01DX009 (ip), vehicle: distilled water + Tween-80 88 % of control | dose: 25.0 mg/kg/injection, schedule: Q01DX009 (ip), vehicle: distilled water + Tween-80 93 % of control | dose: 50.0 mg/kg/injection, schedule: Q01DX009 (ip), vehicle: distilled water + Tween-80 90 % of control | dose: 200.0 mg/kg/injection, schedule: Q01DX009 (ip), vehicle: distilled water + Tween-80 98 % of control

[Cl][Eu][Cl]
inactive: [12] 87 % of control | dose: 100.0 mg/kg/injection, schedule: Q01DX009 (ip), vehicle: saline 91 % of control

CCOC(=O)C1(C)C(=O)CC(c2ccccc2)CC1c1ccccc1 (stereo unspecified)
inactive: [10] 100 % of control | [11] 96 % of control | [13] 99 % of control

OC1(c2ccc(Cl)cc2)c2ccccc2COc2ccccc21 (stereo unspecified)
inactive: dose: 100.0 mg/kg/injection, schedule: Q01DX001 (ip), vehicle: Klucel (hydroxypropylcellulose) (HPC) 102 % of control | dose: 200.0 mg/kg/injection, schedule: Q01DX001 (ip), vehicle: Klucel (hydroxypropylcellulose) (HPC) 100 % of control | dose: 400.0 mg/kg/injection, schedule: Q01DX001 (ip), vehicle: Klucel (hydroxypropylcellulose) (HPC) 100 % of control
